# Laboratory results from ChEMBL document CHEMBL1150275, “Pharmacological and pharmacokinetic characterization of 2-piperazine-alpha-isopropyl benzylamine derivatives as melanocortin-4 receptor antagonists” (Bioorg Med Chem, 2008).
# What was measured:
# [1] = Volume of distribution in mouse at 5 mg/kg, iv and 10 mg/kg, po; assay type: ADME, organism-based; conditions: in vivo
# [2] = Cmax in mouse brain at 5 mg/kg, iv and 10 mg/kg, po; assay type: ADME, organism-based
# [3] = Drug level in LLC tumor bearing C57BL/6J mouse brain at 20 mg/kg, po twice daily after 12 hrs on day 1 of administration; assay type: ADME, organism-based; set-up: dose 20 mg/kg, route oral
# [4] = Drug level in LLC tumor bearing C57BL/6J mouse plasma at 20 mg/kg, po twice daily after 24 hrs; assay type: ADME, organism-based; set-up: dose 20 mg/kg, route oral
# [5] = Ratio of drug level in brain to plasma in mouse at 10 mg/kg, po after 1 hr; assay type: ADME, organism-based; set-up: dose 10 mg/kg, route oral; conditions: brain and plasma
# [6] = Ratio of drug level in brain to plasma in mouse at 5 mg/kg, iv after 4 hrs; assay type: ADME, organism-based; set-up: dose 5 mg/kg, route intravenous
# [7] = Drug level in mouse brain at 10 mg/kg, po after 4 hrs; assay type: ADME, organism-based; set-up: dose 10 mg/kg, route oral; conditions: read-out: Drug uptake
# Caco-2 = assay: Apparent permeability across human Caco-2 cells; assay type: ADME, cell-based
# [8] = Drug level in LLC tumor bearing C57BL/6J mouse brain at 20 mg/kg, po twice daily after 12 hrs on day of administration; assay type: ADME, organism-based; set-up: dose 20 mg/kg, route oral
# [9] = Ratio of Cmax in brain to plasma in mouse at 5 mg/kg, iv and 10 mg/kg, po; assay type: ADME, organism-based
# [10] = Drug level in LLC tumor bearing C57BL/6J mouse plasma at 20 mg/kg, po twice daily after 12 hrs on day 1 of administration; assay type: ADME, organism-based; set-up: dose 20 mg/kg, route oral
# [11] = Drug level in LLC tumor bearing C57BL/6J mouse brain at 20 mg/kg, po twice daily after 2 hrs on day 1 of administration; assay type: ADME, organism-based; set-up: dose 20 mg/kg, route oral
# [12] = Drug level in LLC tumor bearing C57BL/6J mouse brain at 20 mg/kg, po twice daily after 24 hrs on day 4 of administration measured 14 hrs after last dose; assay type: ADME, organism-based; set-up: dose 20 mg/kg, route oral
# [13] = Drug level in LLC tumor bearing C57BL/6J mouse brain at 20 mg/kg, po twice daily after 24 hrs; assay type: ADME, organism-based; set-up: dose 20 mg/kg, route oral
# [14] = Drug level in LLC tumor bearing C57BL/6J mouse plasma at 20 mg/kg, po twice daily after 12 hrs on day 4 of administration; assay type: ADME, organism-based; set-up: dose 20 mg/kg, route oral
# [15] = Drug level in LLC tumor bearing C57BL/6J mouse plasma at 20 mg/kg, po twice daily after 2 hrs on day 4 of administration; assay type: ADME, organism-based; set-up: dose 20 mg/kg, route oral
# [16] = Ratio of drug level in brain to plasma in mouse at 5 mg/kg, iv after 1 hr; assay type: ADME, organism-based; set-up: dose 5 mg/kg, route intravenous
# Brain [17] = assay: Drug level in LLC tumor bearing C57BL/6J mouse brain at 5 mg/kg, po; assay type: ADME, organism-based; set-up: dose 5 mg/kg, route oral; conditions: in vivo
# Brain [18] = assay: AUC in rat brain at 10 mg/kg, po; assay type: ADME, organism-based; set-up: dose 10 mg/kg, route oral; conditions: in vivo
# [19] = Drug level in LLC tumor bearing C57BL/6J mouse plasma at 20 mg/kg, po twice daily after 2 hrs on day 1 of administration; assay type: ADME, organism-based; set-up: dose 20 mg/kg, route oral
# [20] = Ratio of AUC in brain to plasma in mouse at 5 mg/kg, iv and 10 mg/kg, po; assay type: ADME, organism-based
# [21] = Dissociation constant, pKa of the compound; assay type: physicochemical
# physchem = conditions: buffer, pH 7.4
# [22] = Tmax in mouse brain at 5 mg/kg, iv and 10 mg/kg, po; assay type: ADME, organism-based
# [23] = Drug level in rat brain at 10 mg/kg, po after 6 hrs; assay type: ADME, organism-based; set-up: dose 10 mg/kg, route oral; conditions: read-out: Drug uptake
# [24] = Ratio of drug level in brain to plasma in mouse at 10 mg/kg, po after 4 hrs; assay type: ADME, organism-based; set-up: dose 10 mg/kg, route oral
# [25] = Drug level in LLC tumor bearing C57BL/6J mouse brain at 20 mg/kg, po twice daily after 2 hrs on day 4 of administration; assay type: ADME, organism-based; set-up: dose 20 mg/kg, route oral
# [26] = Drug level in LLC tumor bearing C57BL/6J mouse plasma at 20 mg/kg, po twice daily after 24 hrs on day 4 of administration measured 14 hrs after last dose; assay type: ADME, organism-based; set-up: dose 20 mg/kg, route oral
# [27] = Drug level in mouse brain at 10 mg/kg, po after 1 hr; assay type: ADME, organism-based; set-up: dose 10 mg/kg, route oral
# Brain [28] = assay: AUC in mouse brain at 5 mg/kg, iv and 10 mg/kg, po; assay type: ADME, organism-based; conditions: in vivo
# [29] = Ratio of AUC in brain to plasma in rat at 10 mg/kg, po; assay type: ADME, organism-based; set-up: dose 10 mg/kg, route oral; conditions: brain and plasma
# [30] = Oral bioavailability in rat at 10 mg/kg; assay type: ADME, organism-based; conditions: in vivo
# [31] = Tmax in rat at 5 mg/kg, iv and 10 mg/kg, po; assay type: ADME, organism-based; conditions: in vivo
# [32] = Cmax in rat at 5 mg/kg, iv and 10 mg/kg, po; assay type: ADME, organism-based; conditions: in vivo
# [33] = Ratio of Cmax in brain to plasma in rat at 10 mg/kg, po after 4 hrs; assay type: ADME, organism-based; set-up: dose 10 mg/kg, route oral; conditions: brain and plasma
# [34] = Oral bioavailability in monkey at 10 mg/kg; assay type: ADME, organism-based, Macaca mulatta; conditions: rhesus monkey, in vivo
# [35] = Volume of distribution in dog at 5 mg/kg, iv and 10 mg/kg, po; assay type: ADME, organism-based, Canis lupus familiaris; conditions: in vivo
# [36] = Ratio of Cmax in brain to plasma in rat at 10 mg/kg, po after 1 hr; assay type: ADME, organism-based; set-up: dose 10 mg/kg, route oral; conditions: brain and plasma
# [37] = AUC in mouse at 10 mg/kg, po; assay type: ADME, organism-based; set-up: dose 10 mg/kg, route oral; conditions: plasma
# [38] = Volume of distribution in rat at 5 mg/kg, iv and 10 mg/kg, po; assay type: ADME, organism-based; conditions: in vivo
# [39] = Cmax in dog at 5 mg/kg, iv and 10 mg/kg, po; assay type: ADME, organism-based, Canis lupus familiaris; conditions: in vivo
# [40] = AUC in dog at 10 mg/kg, po; assay type: ADME, organism-based, Canis lupus familiaris; set-up: dose 10 mg/kg, route oral; conditions: plasma
# [41] = Volume of distribution in monkey at 5 mg/kg, iv and 10 mg/kg, po; assay type: ADME, organism-based, Macaca mulatta; conditions: rhesus monkey, in vivo
# [42] = Tmax in dog at 5 mg/kg, iv and 10 mg/kg, po; assay type: ADME, organism-based, Canis lupus familiaris; conditions: in vivo
# [43] = Drug level in mouse brain at 5 mg/kg, iv after 4 hrs; assay type: ADME, organism-based; set-up: dose 5 mg/kg, route intravenous; conditions: read-out: Drug uptake
# [44] = AUC in monkey at 10 mg/kg, po; assay type: ADME, organism-based, Macaca mulatta; set-up: dose 10 mg/kg, route oral; conditions: rhesus monkey, plasma
# [45] = Tmax in rat brain at 10 mg/kg, po; assay type: ADME, organism-based; set-up: dose 10 mg/kg, route oral
# [46] = Cmax in monkey at 5 mg/kg, iv and 10 mg/kg, po; assay type: ADME, organism-based, Macaca mulatta; conditions: rhesus monkey, in vivo
# [47] = Drug level in mouse brain at 5 mg/kg, iv after 1 hr; assay type: ADME, organism-based; set-up: dose 5 mg/kg, route intravenous; conditions: read-out: Drug uptake
# [48] = AUC in rat at 10 mg/kg, po; assay type: ADME, organism-based; set-up: dose 10 mg/kg, route oral; conditions: plasma
# [49] = Cmax in rat brain at 10 mg/kg, po; assay type: ADME, organism-based; set-up: dose 10 mg/kg, route oral
# [50] = Drug level in rat brain at 10 mg/kg, po after 4 hrs; assay type: ADME, organism-based; set-up: dose 10 mg/kg, route oral; conditions: read-out: Drug uptake
# [51] = Drug level in rat brain at 10 mg/kg, po after 1 hr; assay type: ADME, organism-based; set-up: dose 10 mg/kg, route oral; conditions: read-out: Drug uptake
# [52] = Oral bioavailability in mouse at 10 mg/kg; assay type: ADME, organism-based; conditions: in vivo
# [53] = Cmax in mouse at 5 mg/kg, iv and 10 mg/kg, po; assay type: ADME, organism-based; conditions: in vivo
# [54] = Oral bioavailability in dog at 10 mg/kg; assay type: ADME, organism-based, Canis lupus familiaris; conditions: in vivo
# [55] = Ratio of Cmax in brain to plasma in rat at 10 mg/kg, po; assay type: ADME, organism-based; set-up: dose 10 mg/kg, route oral; conditions: brain and plasma
# [56] = Tmax in mouse at 5 mg/kg, iv and 10 mg/kg, po; assay type: ADME, organism-based; conditions: in vivo
# [57] = Tmax in monkey at 5 mg/kg, iv and 10 mg/kg, po; assay type: ADME, organism-based, Macaca mulatta; conditions: rhesus monkey, in vivo
compound,measurement,setting,value
Cc1ccc(N2CCN(C(=O)[C@H](C)Cc3ccc(Cl)cc3)CC2)c([C@@H](NC(=O)CCN(C)C)C(C)C)c1,Vd,[1],4.1 L/kg
same,Cmax,[2],91 ng/g
same,concentration at 12 h,[3],74 ng/g
same,concentration at 24 h,[4],140 ng/mL
same,Kp at 1 h,[5],0.1
same,Kp at 4 h,[6],0.1
same,concentration at 4 h,[7],18 ng/g
same,Papp,Caco-2,41 ×10⁻⁶ cm/s
same,concentration at 12 h,[8],25 ng/g
same,Kp,[9],0.1
same,concentration at 12 h,[10],430 ng/mL
same,concentration at 2 h,[11],27 ng/g
same,concentration at 14 h,[12],4.5 ng/g
same,concentration at 24 h,[13],11 ng/g
same,concentration at 12 h,[14],405 ng/mL
same,concentration at 2 h,[15],460 ng/mL
same,Kp at 1 h,[16],0.1
same,Drug uptake,Brain [17],2 ng/mL
same,AUC,Brain [18],254 ng·h/g
same,concentration at 2 h,[19],360 ng/mL
same,Kp,[20],0.15
same,pKa,[21],8.9
same,logD,physchem,3.4
same,Tmax,[22],0.3 h
same,concentration at 6 h,[23],41 ng/g
same,Kp at 4 h,[24],0.1
same,concentration at 2 h,[25],36 ng/g
same,concentration at 14 h,[26],22 ng/mL
same,concentration at 1 h,[27],19 ng/g
same,AUC,Brain [28],367 ng·h/g
CC(C)[C@H](NC(=O)CCN(C)C)c1cccc(F)c1N1CCN(C(=O)[C@H](C)Cc2ccc(Cl)cc2)CC1,Vd,[1],5.2 L/kg
same,Kp,[29],0.48
same,bioavailability,[30],31%
same,Tmax,[31],6 h
same,Cmax,[32],195 ng/mL
same,Kp at 4 h,[33],0.2
same,bioavailability,[34],21%
same,Kp at 4 h,[6],0.8
same,Vd,[35],8.7 L/kg
same,Kp at 1 h,[36],0.05
same,AUC,[37],2690 ng·h/mL
same,Vd,[38],7.7 L/kg
same,Cmax,[39],250 ng/mL
same,AUC,[40],3850 ng·h/mL
same,Papp,Caco-2,10 ×10⁻⁶ cm/s
same,Vd,[41],5.6 L/kg
same,Tmax,[42],4 h
same,concentration at 4 h,[43],175 ng/g
same,AUC,[44],2650 ng·h/mL
same,Tmax,[45],6 h
same,Cmax,[46],200 ng/mL
same,concentration at 1 h,[47],322 ng/g
same,AUC,[48],1290 ng·h/mL
same,Cmax,[49],52 ng/g
same,Kp at 1 h,[16],0.6
same,concentration at 4 h,[50],38 ng/g
same,concentration at 1 h,[51],6.3 ng/g
same,bioavailability,[52],42%
same,AUC,Brain [18],618 ng·h/g
same,Cmax,[53],308 ng/mL
same,bioavailability,[54],37%
same,Kp,[55],0.27
same,logD,physchem,2.4
same,Tmax,[56],0.5 h
same,Tmax,[57],6.7 h
